Measurements taken from article PMC3485666 (British Journal of Pharmacology, 2012).

Experiments:
human S1P1 receptors = human S1P1 receptors (Homo sapiens, UniProt P21453); assay: GTPγ[35S] binding assay, human S1P1; type: biochemical
human S1P2 receptors = human S1P2 receptors (Homo sapiens, UniProt O95136); assay: GTPγ[35S] binding assay, human S1P2; type: biochemical
human S1P3 receptors = human S1P3 receptors (Homo sapiens, UniProt Q99500); assay: GTPγ[35S] binding assay, human S1P3; type: biochemical
Sequence of human S1P3 receptors (Q99500 whole entry): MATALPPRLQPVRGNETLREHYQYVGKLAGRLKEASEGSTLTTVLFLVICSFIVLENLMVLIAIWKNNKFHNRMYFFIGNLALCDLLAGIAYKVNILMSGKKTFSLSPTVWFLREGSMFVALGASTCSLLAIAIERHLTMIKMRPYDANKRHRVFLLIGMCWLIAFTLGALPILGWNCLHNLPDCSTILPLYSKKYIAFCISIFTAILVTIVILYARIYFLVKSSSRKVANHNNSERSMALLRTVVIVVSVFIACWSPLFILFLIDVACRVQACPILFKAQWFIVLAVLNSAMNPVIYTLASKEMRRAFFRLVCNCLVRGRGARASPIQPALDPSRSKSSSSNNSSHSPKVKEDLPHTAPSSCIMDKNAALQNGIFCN

human S1P4 receptors = molecular target: T1, human S1P4 receptors (Homo sapiens, UniProt O95977); assay: GTPγ[35S] binding assay, human S1P4; type: biochemical; conditions: read-out: %Emax (percentage of maximum stimulation)
T1 sequence (O95977 1-384): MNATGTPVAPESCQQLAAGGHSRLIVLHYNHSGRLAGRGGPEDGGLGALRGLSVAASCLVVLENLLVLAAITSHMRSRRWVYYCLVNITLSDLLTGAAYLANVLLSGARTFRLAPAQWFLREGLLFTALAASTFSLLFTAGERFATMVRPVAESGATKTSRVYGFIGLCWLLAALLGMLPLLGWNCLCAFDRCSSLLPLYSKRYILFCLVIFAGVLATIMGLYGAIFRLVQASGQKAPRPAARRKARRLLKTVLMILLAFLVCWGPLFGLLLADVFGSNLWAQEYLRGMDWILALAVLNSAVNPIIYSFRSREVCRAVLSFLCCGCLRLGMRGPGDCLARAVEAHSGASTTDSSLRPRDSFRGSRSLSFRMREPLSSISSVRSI

human S1P5 receptors = human S1P5 receptors (Homo sapiens, UniProt Q9H228); assay: GTPγ[35S] binding assay, human S1P5; type: biochemical; conditions: read-out: %Emax (percentage of maximum stimulation), S1P5
Sequence of human S1P5 receptors (Q9H228 whole entry): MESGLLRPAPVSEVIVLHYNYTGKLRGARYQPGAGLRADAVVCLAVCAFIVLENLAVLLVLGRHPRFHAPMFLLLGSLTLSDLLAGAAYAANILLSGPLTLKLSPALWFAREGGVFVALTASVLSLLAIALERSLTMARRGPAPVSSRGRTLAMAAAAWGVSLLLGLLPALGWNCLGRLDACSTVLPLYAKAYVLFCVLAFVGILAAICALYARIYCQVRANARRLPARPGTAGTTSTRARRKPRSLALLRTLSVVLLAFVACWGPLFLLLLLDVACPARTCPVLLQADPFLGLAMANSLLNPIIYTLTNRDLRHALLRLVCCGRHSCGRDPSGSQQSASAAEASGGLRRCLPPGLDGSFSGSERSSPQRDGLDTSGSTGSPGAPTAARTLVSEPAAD

[1] = molecular target: myc-tagged human S1P1 receptors (Homo sapiens, UniProt P21453); assay: Agonist-mediated internalization of S1P1 receptors in CHO cells by flow cytometry; type: cell-based; conditions: for Internalization of S1P1 receptors: 1 h incubation; for S1P1 receptors localized intracellularly: 1 h incubation followed by 3 h without compound
Sequence of myc-tagged human S1P1 receptors (P21453 whole entry): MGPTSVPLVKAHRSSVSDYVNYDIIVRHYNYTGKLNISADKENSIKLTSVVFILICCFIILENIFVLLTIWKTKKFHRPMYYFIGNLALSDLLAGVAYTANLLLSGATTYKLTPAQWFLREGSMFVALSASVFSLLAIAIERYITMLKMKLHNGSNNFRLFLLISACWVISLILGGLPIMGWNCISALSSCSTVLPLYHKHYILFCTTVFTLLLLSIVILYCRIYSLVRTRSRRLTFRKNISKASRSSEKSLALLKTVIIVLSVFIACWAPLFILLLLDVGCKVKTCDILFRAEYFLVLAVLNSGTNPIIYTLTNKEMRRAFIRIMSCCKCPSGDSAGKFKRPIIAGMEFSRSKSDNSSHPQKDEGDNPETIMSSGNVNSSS

[2] = system: experimental autoimmune encephalomyelitis (EAE); assay: Chronic EAE in DA rats, therapeutic dosing; type: in vivo; conditions: DA rat, days 11–34
[3] = system: peripheral absolute lymphocyte count (ALC); assay: Phase I multiple-dose study: absolute lymphocyte count; type: in vivo, human; conditions: for Difference in mean %Emax of ALC, BAF312 versus placebo: 28 days, ANCOVA; for Average time to reach the lower limit of the normal ALC range after stopping dosing at steady state: predicted by pharmacokinetic/pharmacodynamic model
[4] = system: leukocyte subsets in whole blood; assay: Phase I multiple-dose study: leukocyte subsets by flow cytometry; type: in vivo, human; conditions: 10 mg
heart rate = assay: Phase I multiple-dose study: heart rate (Holter monitoring); type: in vivo, human; conditions: for Decrease in mean heart rate Emax0-24 versus placebo: day 1; for Mean heart rate reduction from time-matched day −1: 2 h post dose of day 1
healthy subjects = assay: Phase I multiple-dose study: safety and tolerability; type: in vivo, human
clinical = conditions: both, human, in vivo, Complete wash-out (five effective half-lives) after treatment discontinuation
[5] = Phase I multiple-dose study: plasma pharmacokinetics; conditions: for AUCτ / concentration at 28 day / half-life at 28 day: geometric mean [%CV]; for Cmax at 28 day / Tmax / Tmax at 28 day / concentration at 28 day / half-life at 28 day / Cmax / half-life: both, human, plasma, oral; for half-life at 28 day: based on drug accumulation at steady-state
S1P1 receptors = conditions: ref Piali et al., 2011; cited from earlier work
[6] = molecular target: GIRK channels in human atrial myocytes (Homo sapiens, UniProt P21453); assay: Electrophysiological recordings of GIRK current in human atrial myocytes; type: cell-based; conditions: S1P versus BAF312
Sequence of GIRK channels in human atrial myocytes (P21453 whole entry): as above
Sequence of GIRK channels in human atrial myocytes (P48549 whole entry partner): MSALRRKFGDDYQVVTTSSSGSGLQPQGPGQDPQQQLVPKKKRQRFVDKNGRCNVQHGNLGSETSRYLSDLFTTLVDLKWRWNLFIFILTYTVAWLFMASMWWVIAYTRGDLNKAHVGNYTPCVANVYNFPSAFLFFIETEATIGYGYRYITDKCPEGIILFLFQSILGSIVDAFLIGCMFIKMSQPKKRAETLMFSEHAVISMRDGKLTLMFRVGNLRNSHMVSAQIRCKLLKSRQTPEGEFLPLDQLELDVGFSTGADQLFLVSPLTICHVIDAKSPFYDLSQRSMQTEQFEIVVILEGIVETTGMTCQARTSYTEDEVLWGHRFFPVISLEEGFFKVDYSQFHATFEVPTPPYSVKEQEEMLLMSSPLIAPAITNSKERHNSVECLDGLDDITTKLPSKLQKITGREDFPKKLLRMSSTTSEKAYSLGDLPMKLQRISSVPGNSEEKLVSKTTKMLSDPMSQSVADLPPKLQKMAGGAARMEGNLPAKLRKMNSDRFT
Sequence of GIRK channels in human atrial myocytes (P48544 whole entry partner): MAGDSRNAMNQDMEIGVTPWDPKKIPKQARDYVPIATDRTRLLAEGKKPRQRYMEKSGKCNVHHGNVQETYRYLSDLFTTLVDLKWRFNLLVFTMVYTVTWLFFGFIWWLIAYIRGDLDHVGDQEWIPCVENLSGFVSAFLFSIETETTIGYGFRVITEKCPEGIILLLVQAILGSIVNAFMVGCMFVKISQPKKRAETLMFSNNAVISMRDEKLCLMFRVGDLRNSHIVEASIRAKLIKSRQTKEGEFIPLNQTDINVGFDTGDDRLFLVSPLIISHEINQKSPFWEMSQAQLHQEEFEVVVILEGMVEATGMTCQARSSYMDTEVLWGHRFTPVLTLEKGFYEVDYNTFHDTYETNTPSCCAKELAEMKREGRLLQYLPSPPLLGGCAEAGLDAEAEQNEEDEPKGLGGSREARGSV

Sequence of human S1P2 receptors (O95136 whole entry): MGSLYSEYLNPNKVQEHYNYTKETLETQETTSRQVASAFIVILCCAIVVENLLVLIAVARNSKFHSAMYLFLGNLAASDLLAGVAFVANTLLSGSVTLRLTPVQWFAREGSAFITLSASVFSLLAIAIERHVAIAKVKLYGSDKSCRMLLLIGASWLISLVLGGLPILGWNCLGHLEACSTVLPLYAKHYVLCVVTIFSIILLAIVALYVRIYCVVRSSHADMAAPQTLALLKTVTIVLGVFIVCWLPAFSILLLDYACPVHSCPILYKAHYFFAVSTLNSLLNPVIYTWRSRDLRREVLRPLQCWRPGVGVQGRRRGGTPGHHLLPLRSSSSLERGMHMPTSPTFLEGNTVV
Sequence of human S1P1 receptors (P21453 whole entry): as the sequence (P21453 whole entry) above

## CCc1cc(/C(C)=N/OCc2ccc(C3CCCCC3)c(C(F)(F)F)c2)ccc1CN1CC(C(=O)O)C1 [BAF312, 1-(4-{1-[(E)-4-cyclohexyl-3-trifluoromethylbenzyloxyimino]-ethyl}-2-ethylbenzyl)-azetidine-3-carboxylic acid]
Human S1P1 receptors
  EC50: 0.39 ± 0.07 nM
Human S1P2 receptors
  EC50: > 10000 nM
Human S1P3 receptors
  EC50: > 1000 nM
Human S1P4 receptors
  Emax: 90 ± 9%
Human S1P5 receptors
  Emax: ~100%
[1]; 10 nM, 2 experiments
  Internalization of S1P1 receptors: 86 ± 4%
[1]; 100 nM, 2 experiments
  Internalization of S1P1 receptors: 99 ± 3%
[1]; 1 µM, mean ± SD
  S1P1 receptors localized intracellularly: 87 ± 0.5%
  Internalization of S1P1 receptors: 91 ± 4%
[1]; incubated for up to 12 h without compound (data not shown)
  Surface expression of S1P1 receptors: remained low
[2]; 0.03 mg·kg^−1 oral once daily
  Disease scores (AUC from days 12 to 34) versus vehicle: borderline effect
[2]; 0.3 mg·kg^−1 oral once daily
  Disease scores (AUC from days 12 to 34) versus vehicle: significant reduction
[2]; 3 mg·kg^−1 oral once daily
  Disease scores (AUC from days 12 to 34) versus vehicle: significant reduction
[3]; 0.3 mg once daily, 90% CI in parentheses
  Difference in mean %Emax of ALC, BAF312 versus placebo: 32.8%
[3]; 1 mg once daily
  Difference in mean %Emax of ALC, BAF312 versus placebo: 61.6%
[3]; 1 mg
  Average time to reach the lower limit of the normal ALC range after stopping dosing at steady state: approximately 24 h
[3]; 2.5 mg once daily
  Difference in mean %Emax of ALC, BAF312 versus placebo: 56.7%
[3]; 10 mg once daily
  Difference in mean %Emax of ALC, BAF312 versus placebo: 74.6%
[3]; 10 mg
  Average time to reach the lower limit of the normal ALC range after stopping dosing at steady state: ~123 h
[3]; 20 mg once daily
  Difference in mean %Emax of ALC, BAF312 versus placebo: 76.1%
[3]; day 1, healthy subjects
  Time of maximal ALC reduction post dose: 4 to 6 h
[3]; treatment stopped on day 28, dose groups 0.3–10 mg
  Study day by which ALC returned to the normal range: ≤ 35 days
[4]; baseline to end of treatment
  Effect on B and T cell counts: strong reduction in cell counts
  Effect on monocyte counts: Little or no effect
[4]; three weeks after discontinuation (data not shown)
  Leukocyte subset cell counts after discontinuation: returned to baseline levels
Heart rate; 0.3 mg, 90% CI in brackets, not significant
  Decrease in mean heart rate Emax0-24 versus placebo: −0.92 bpm
Heart rate; 1 mg
  Decrease in mean heart rate Emax0-24 versus placebo: −6.41 bpm
Heart rate; 2.5 mg
  Decrease in mean heart rate Emax0-24 versus placebo: −5.44 bpm
Heart rate; 10 mg
  Mean heart rate reduction from time-matched day −1: approximately 24 ± 6 bpm
  Decrease in mean heart rate Emax0-24 versus placebo: −13.88 bpm
Heart rate; 20 mg
  Mean heart rate reduction from time-matched day −1: ~29 ± 10 bpm
Heart rate; active groups, each on day 1
  Subjects with asymptomatic second degree atrioventricular (AV) block: three
Heart rate; day 1, all (0.3–20 mg) doses
  Time of maximum decrease in mean ventricular heart rate post dose: ~2 h
Healthy subjects; 0.3 mg dose group
  Subjects experiencing AEs: three
Healthy subjects; 1 mg dose group
  Subjects experiencing AEs: three
Healthy subjects; 2.5 mg dose group
  Subjects experiencing AEs: four
Healthy subjects; 10 mg dose group
  Subjects experiencing AEs: six
Healthy subjects; 20 mg dose group
  Subjects experiencing AEs: six
Healthy subjects; 0.3–20 mg once daily, 28 days
  Macular oedema by ocular coherence tomography: no signs of macular oedema
Healthy subjects; 0.3–20 mg once daily, 28 days, healthy subjects
  Tolerability: well tolerated
Healthy subjects; by dose group
  Elevations in alanine aminotransferase level: occurred most frequently in subjects in the BAF312 20 mg dose group
Healthy subjects; not related to dose and day (data not shown)
  Pulmonary function tests versus placebo: mild to moderate, statistically significant decreases
Healthy subjects; regardless of the dose
  Visual acuity scores over treatment days: no notable changes
Healthy subjects; whole trial
  Serious AEs: no serious AEs
clinical
  half-life: 151 h
[5]; Day 1, 0.3 mg·day^−1
  AUC0–24 h: 36.2 [10] h^*ng·mL^−1
[5]; Day 1, 1 mg·day^−1
  AUC0–24 h: 136 [8] h^*ng·mL^−1
[5]; Day 1, 2.5 mg·day^−1
  AUC0–24 h: 293 [85] h^*ng·mL^−1
[5]; Day 1, 10 mg·day^−1
  AUC0–24 h: 1370 [11] h^*ng·mL^−1
[5]; Day 1, 20 mg·day^−1
  AUC0–24 h: 2740 [14] h^*ng·mL^−1
[5]; Day 28, 0.3 mg·day^−1
  AUCτ: 97.9 [19] h^*ng·mL^−1
[5]; Day 28, 1 mg·day^−1
  AUCτ: 282 [16] h^*ng·mL^−1
[5]; Day 28, 2.5 mg·day^−1
  AUCτ: 692 [45] h^*ng·mL^−1
[5]; Day 28, 10 mg·day^−1
  AUCτ: 2580 [24] h^*ng·mL^−1
[5]; Day 28, 20 mg·day^−1, arithmetic mean (SD)
  Cmin,ss: 166 (88.0) ^D ng·mL^−1
[5]; Day 28, 20 mg·day^−1
  AUCτ: 6370 [23] h^*ng·mL^−1
[5]; 0.3 mg·day^−1
  Cmax at 28 day: 5.31 ng/mL
  Tmax: 3 h
  Tmax at 28 day: 3.5 h
[5]; 0.3 mg·day^−1, Cavg, ss, Day 28, 0.3 mg·day^−1
  concentration at 28 day: 4.08 ng/mL
[5]; 0.3 mg·day^−1, Cmin,ss, Day 28, 0.3 mg·day^−1
  concentration at 28 day: 2.83 ng/mL
[5]; 0.3 mg·day^−1, Effective T1/2, Day 28, 0.3 mg·day^−1
  half-life at 28 day: 36.2 h
[5]; 1 mg·day^−1
  Cmax: 8.01 ng/mL
  Cmax at 28 day: 14.9 ng/mL
  Tmax: 4.5 h
  Tmax at 28 day: 3 h
[5]; 1 mg·day^−1, Cavg, ss, Day 28, 1 mg·day^−1
  concentration at 28 day: 11.7 ng/mL
[5]; 1 mg·day^−1, Cmin,ss, Day 28, 1 mg·day^−1
  concentration at 28 day: 7.74 ng/mL
[5]; 1 mg·day^−1, Effective T1/2, Day 28, 1 mg·day^−1
  half-life at 28 day: 25.2 h
[5]; 2.5 mg·day^−1
  Cmax: 17.4 ng/mL
  Cmax at 28 day: 38.3 ng/mL
  Tmax: 3 h
  Tmax at 28 day: 4 h
[5]; 2.5 mg·day^−1, Cavg, ss, Day 28, 2.5 mg·day^−1
  concentration at 28 day: 28.8 ng/mL
[5]; 2.5 mg·day^−1, Cmin,ss, Day 28, 2.5 mg·day^−1
  concentration at 28 day: 15.2 ng/mL
[5]; 10 mg·day^−1
  Cmax: 84.1 ng/mL
  Cmax at 28 day: 147 ng/mL
  Tmax: 3 h
  Tmax at 28 day: 3 h
[5]; 10 mg·day^−1, Cavg, ss, Day 28, 10 mg·day^−1
  concentration at 28 day: 107 ng/mL
[5]; 10 mg·day^−1, Cmin,ss, Day 28, 10 mg·day^−1
  concentration at 28 day: 70.6 ng/mL
[5]; 10 mg·day^−1, Effective T1/2, Day 28, 10 mg·day^−1
  half-life at 28 day: 21.9 h
[5]; 20 mg·day^−1
  Cmax: 162 ng/mL
  Cmax at 28 day: 359 ng/mL
  Tmax: 4 h
  Tmax at 28 day: 3 h
[5]; 20 mg·day^−1, Cavg, ss, Day 28, 20 mg·day^−1
  concentration at 28 day: 265 ng/mL
[5]; 20 mg·day^−1, Effective T1/2, Day 28, 20 mg·day^−1
  half-life at 28 day: 28.8 h
[5]; Effective elimination half-life based on drug accumulation at steady state, range over dose groups
  half-life: 22 to 38 h
[5]; Effective elimination half-life, mean, mean over dose groups
  half-life: 30 h
[5]; dose range of 0.3 to 20 mg
  Dose proportionality of pharmacokinetics: increase proportionally with the dose
[5]; multiple once-daily administration
  Time to steady-state concentrations: approximately 6 days

## CCC/N=C1\S/C(=C\c2ccc(OC[C@H](O)CO)c(Cl)c2)C(=O)N1c1ccccc1C [ponesimod]
S1P1 receptors
  Selectivity of S1P1 versus S1P3 (full agonist): 20 fold
  Selectivity of S1P1 versus S1P5 (partial agonist): 10 fold

## CCCCCCCCCCCCC/C=C/[C@@H](O)[C@@H](N)COP(=O)(O)O [S1P, sphingosine 1-phosphate, reference compound]
[1]; 1 µM, mean ± SD
  S1P1 receptors localized intracellularly: 9 ± 9%
  Internalization of S1P1 receptors: 48 ± 12%
[6]
  Potency in activating GIRK current relative to BAF312: approximately 8 times
